According to the NIST ThermoML archive (doi:10.1021/je200721d):

Test: xn = mol fraction of the nth substance listed
Settings: Liquid, Vibrating tube method

CCCCCCCCCC [decane] + CCCCCC
Settings | mass density [kg/m3]
342.8 K, 1000 kPa, x2 = 0.8991 | 626.74
342.8 K, 2000 kPa, x2 = 0.8991 | 628.11
342.8 K, 3000 kPa, x2 = 0.8991 | 629.48
342.8 K, 4000 kPa, x2 = 0.8991 | 630.85
342.8 K, 5000 kPa, x2 = 0.8991 | 632.19
342.8 K, 6000 kPa, x2 = 0.8991 | 633.52
342.8 K, 7000 kPa, x2 = 0.8991 | 634.85
342.8 K, 8000 kPa, x2 = 0.8991 | 636.16
342.8 K, 9000 kPa, x2 = 0.8991 | 637.46
342.8 K, 10000 kPa, x2 = 0.8991 | 638.73
342.8 K, 11000 kPa, x2 = 0.8991 | 639.99
342.8 K, 12000 kPa, x2 = 0.8991 | 641.23
342.8 K, 13000 kPa, x2 = 0.8991 | 642.43
342.8 K, 14000 kPa, x2 = 0.8991 | 643.64
342.8 K, 15000 kPa, x2 = 0.8991 | 644.8
342.8 K, 16000 kPa, x2 = 0.8991 | 645.95
342.8 K, 17000 kPa, x2 = 0.8991 | 647.07
342.8 K, 18000 kPa, x2 = 0.8991 | 648.18
342.8 K, 19000 kPa, x2 = 0.8991 | 649.24
342.8 K, 20000 kPa, x2 = 0.8991 | 650.3
342.8 K, 21000 kPa, x2 = 0.8991 | 651.32
342.8 K, 22000 kPa, x2 = 0.8991 | 652.31
342.8 K, 23000 kPa, x2 = 0.8991 | 653.28
342.8 K, 24000 kPa, x2 = 0.8991 | 654.23
342.8 K, 25000 kPa, x2 = 0.8991 | 655.16
343.05 K, 1000 kPa, x2 = 0.0456 | 690.21
343.05 K, 2000 kPa, x2 = 0.0456 | 691.25
343.05 K, 3000 kPa, x2 = 0.0456 | 692.26
343.05 K, 4000 kPa, x2 = 0.0456 | 693.3
343.05 K, 5000 kPa, x2 = 0.0456 | 694.32
343.05 K, 6000 kPa, x2 = 0.0456 | 695.32
343.05 K, 7000 kPa, x2 = 0.0456 | 696.31
343.05 K, 8000 kPa, x2 = 0.0456 | 697.29
343.05 K, 9000 kPa, x2 = 0.0456 | 698.26
343.05 K, 10000 kPa, x2 = 0.0456 | 699.22
343.05 K, 11000 kPa, x2 = 0.0456 | 700.16
343.05 K, 12000 kPa, x2 = 0.0456 | 701.08
343.05 K, 13000 kPa, x2 = 0.0456 | 702
343.05 K, 14000 kPa, x2 = 0.0456 | 702.89
343.05 K, 15000 kPa, x2 = 0.0456 | 703.77
343.05 K, 16000 kPa, x2 = 0.0456 | 704.64
343.05 K, 17000 kPa, x2 = 0.0456 | 705.5
343.05 K, 18000 kPa, x2 = 0.0456 | 706.36
343.05 K, 19000 kPa, x2 = 0.0456 | 707.2
343.05 K, 20000 kPa, x2 = 0.0456 | 708.02
343.05 K, 21000 kPa, x2 = 0.0456 | 708.84
343.05 K, 22000 kPa, x2 = 0.0456 | 709.65
343.05 K, 23000 kPa, x2 = 0.0456 | 710.45
343.05 K, 24000 kPa, x2 = 0.0456 | 711.25
343.05 K, 25000 kPa, x2 = 0.0456 | 712.03
343.06 K, 1000 kPa, x2 = 0.2185 | 681.09
343.06 K, 1000 kPa, x2 = 0.7524 | 641.66
343.06 K, 2000 kPa, x2 = 0.2185 | 682.19
343.06 K, 2000 kPa, x2 = 0.7524 | 643.07
343.06 K, 3000 kPa, x2 = 0.2185 | 683.33
343.06 K, 3000 kPa, x2 = 0.7524 | 644.43
343.06 K, 4000 kPa, x2 = 0.2185 | 684.4
343.06 K, 4000 kPa, x2 = 0.7524 | 645.8
343.06 K, 5000 kPa, x2 = 0.2185 | 685.47
343.06 K, 5000 kPa, x2 = 0.7524 | 647.1
343.06 K, 6000 kPa, x2 = 0.2185 | 686.52
343.06 K, 6000 kPa, x2 = 0.7524 | 648.4
343.06 K, 7000 kPa, x2 = 0.2185 | 687.54
343.06 K, 7000 kPa, x2 = 0.7524 | 649.65
343.06 K, 8000 kPa, x2 = 0.2185 | 688.57
343.06 K, 8000 kPa, x2 = 0.7524 | 650.88
343.06 K, 9000 kPa, x2 = 0.2185 | 689.57
343.06 K, 9000 kPa, x2 = 0.7524 | 652.12
343.06 K, 10000 kPa, x2 = 0.2185 | 690.55
343.06 K, 10000 kPa, x2 = 0.7524 | 653.31
343.06 K, 11000 kPa, x2 = 0.2185 | 691.53
343.06 K, 11000 kPa, x2 = 0.7524 | 654.46
343.06 K, 12000 kPa, x2 = 0.2185 | 692.48
343.06 K, 12000 kPa, x2 = 0.7524 | 655.59
343.06 K, 13000 kPa, x2 = 0.2185 | 693.45
343.06 K, 13000 kPa, x2 = 0.7524 | 656.72
343.06 K, 14000 kPa, x2 = 0.2185 | 694.36
343.06 K, 14000 kPa, x2 = 0.7524 | 657.81
343.06 K, 15000 kPa, x2 = 0.2185 | 695.27
343.06 K, 15000 kPa, x2 = 0.7524 | 658.89
343.06 K, 16000 kPa, x2 = 0.2185 | 696.19
343.06 K, 16000 kPa, x2 = 0.7524 | 659.96
343.06 K, 17000 kPa, x2 = 0.2185 | 697.07
343.06 K, 17000 kPa, x2 = 0.7524 | 661
343.06 K, 18000 kPa, x2 = 0.2185 | 697.94
343.06 K, 18000 kPa, x2 = 0.7524 | 662.03
343.06 K, 19000 kPa, x2 = 0.2185 | 698.83
343.06 K, 19000 kPa, x2 = 0.7524 | 663.03
343.06 K, 20000 kPa, x2 = 0.2185 | 699.68
343.06 K, 20000 kPa, x2 = 0.7524 | 664.01
343.06 K, 21000 kPa, x2 = 0.2185 | 700.53
343.06 K, 21000 kPa, x2 = 0.7524 | 664.97
343.06 K, 22000 kPa, x2 = 0.2185 | 701.36
